Test results: EP2054729B1, “PROCESS AND APPARATUS FOR ION CHANNEL CHARACTERIZATION” (Universität Hannover, priority 2006, dated 2008)

Target: T1, connexin hCx26 (Homo sapiens, UniProt P29033)
T1 construct: made in house; host or cells: E. coli Top10
Experiment: Permeation (gating activity) assay with ion channel protein in lipid membrane vesicles, fluorescence detection of Lucifer Yellow release
Type: biochemical
Settings: for inhibitory effect: concentration range in which inhibition of gating activity was shown, same experimental setup as for carbenoxolone, vesicles adjusted to 50 µM Ca^2+, triggered by EDTA addition or heat pulse
Method: Lipid membrane vesicles are generated by resuspending a POPC lipid film in 150 mM sodium chloride, 10 mM Tris-HCl, pH 8, containing Lucifer Yellow as a replacement for the cation species permeated by the exemplary ion channel protein.
Following centrifugation, the supernatant is removed and vesicles are suspended in the same medium for 10 minutes. As the ion channel protein, connexin hCx26, reconstituted to its hexameric form after expression in the E.coli strain Top10 (Invitrogen), using the expression plasmid pTrcHisTOPO (available from Invitrogen, Germany) containing the hCx26 gene under the control of a trc-promoter. The gene sequence is accessible at GenBank under accession number NP 003995. Cultivation was in LB-medium containing ampicillin as the selection marker at 37 °C.
For incorporation of ion channel protein, 250 µg/mL were solubilised in 30 mM octylglucoside, 150 mM sodium chloride, 10 mM Tris-HCl, pH 8 and added to 1 mL lipid membrane vesicle suspension (10 mg POPC/mL). After incubation for 1 to 12 hours under mild agitation at 4 °C, detergent was removed by dialysis for two days at 4 °C in 150 mM sodium chloride, 10 mM Tris-HCl, pH 8, including three changes of buffer volume. Finally, the vesicles were transferred by dialysis against buffer into 150 mM sodium chloride, 10 mM Tris-HCl, pH 8 at 4 °C for removal of the ion species, namely the replacement Lucifer Yellow or the physiologically permeated ion potassium, which are permeated by the ion channel protein present. […]
Starting at a basic temperature of 4 °C, the microtiter plate was heated incrementally by steps of 2 °C each using a thermostat, with intermediate or permanent measurement of fluorescence emission under irradiation at the excitation wavelength.
From a comparison of the increase of fluorescence at increasing temperatures of a reaction composition containing the effector to that measured for an identical composition, except for the absence of effector, allows to characterize the effector at its given concentration in the assay, e.g. as an inhibitor, activator or modulator of the gating activity. […]

CC1(C)[C@@H](OC(=O)CCC(=O)O)CC[C@]2(C)[C@H]3C(=O)C=C4[C@@H]5C[C@@](C)(C(=O)O)CC[C@]5(C)CC[C@@]4(C)[C@]3(C)CC[C@@H]12 [carbenoxolone]
concentration dependency of gating activity (carbenoxolone up to final concentrations of 10 mM, plate at 28 °C, result shown graphically only (Figures 9 and 10)): inhibitory effect

CCCCCCCO [heptanol]
inhibitory effect: nanomolar to picomolar range

cobalt ions
inhibitory effect: millimolar to micromolar range
